Test results published in US20210030703A1, “USE OF CALORIC RESTRICTION MIMETICS FOR POTENTIATING CHEMO-IMMUNOTHERAPY FOR THE TREATMENT OF CANCERS” (INSERM (INSTITUT NATIONAL DE LA SANTÉ ET DE LA RECHERCHE …, priority 2018, published 2021).

How the values were obtained:
PD-1 = PD-1 expression in tumors; assay type: in vivo, C57B1/6 mice; conditions: MTX alone or together with fasting or CRMs; data not shown
Description: (§1) 3 or 11 days post-chemotherapy (d3 or d11), mice were euthanized and the tumors were withdrawn and placed in gentleMACS C tubes (ref 130-096-334 from Miltenyi Biotec™) previously filled with 1 ml of DMEM or RPMI medium, and immediately put on ice. After a mechanical (with scissors) and chemical digestion (thanks to the tumor dissociation kit and the gentleMACS Octo Dissociator, ref 130-096-730 and 130-096-427, respectively, from Miltenyi Biotec™), tumors were filtered (using MACS smartstrainers […], ref 130-110-916 from Miltenyi Biotec™), washed twice with PBS and distributed in a 96-wells round bottom plate.
(§2) Then, cells were stained with a live dead dye (ref L34959 from ThermoFisher Scientific™) and an FCblock receptor targeting antibody. […] Finally, cells were resuspended in FACS buffer and analyzed on a flow cytometer BD LSR II.

MCA205 fibrosarcoma = test: Subcutaneous MCA205 fibrosarcoma: tumor growth, cure and survival under chemo-immunotherapy; assay type: in vivo, C57B1/6 mice; conditions: for Complete responses leading to tumor eradication: endpoint 50 days after chemotherapy; for Efficacy of MTX + ICIs (anti-PD-1 plus anti-CTLA-4) chemo-immunotherapy when the CRM is added: figure legends FIG. 2, 3, 4, 6
Description: Mouse strain and housing. Six- to 8-week-old wild-type female C57B1/6 mice were obtained from Envigo RMS SARL (Gannat, France). Animals were maintained in specific pathogen-free conditions in a temperature-controlled environment with 12 h light, 12 h dark cycles and received food and water ad libitum (unless precised otherwise). Animal experiments were in compliance with the EU Directive 63/2010 and approved by the Ethical Committee of the Cordeliers Research Center (Paris, France). All mouse experiments were randomized and blinded, and sample sizes were calculated to detect a statistically significant effect.
In vivo experimentations. Tumor engraftment was performed through subcutaneous injection of 3×10^5 MCA205 fibrosarcoma tumor cells (in 100 μl PBS) in the right flank of the mice. Tumor volume was monitored using a digital caliper and calculated according to the formula: volume=length×width×height/8×4/3 pi. When tumor reached 20 mm^3 on average, mice underwent fasting (48 hours without food but ad libitum access to water) or were given caloric restriction mimetics (CRMs) such as aspirin (Asp; 10 mg/kg i.p. in 200 μl phosphate buffered saline [PBS] five times per week), hydroxycitrate (HC; 5 mg/ml in drinking water daily) or spermidine (Spd; 50 mg/kg i.p. in 200 μl Earle's balanced salt solution three times per week), or were treated with mitoxantrone (MTX; 5.17 mg/kg i.p. in 200 μl PBS), or with the immune checkpoint inhibitors (ICIs) anti-PD-1 (10 mg/kg i.p. in 200 μl PBS) and/or anti-CTLA-4 (5 mg/kg i.p. in 200 μl PBS). Tumor size was carefully monitored up to 50 days post-MTX. Antitumor immunity induced by the treatment in cured mice was challenged by subcutaneously re-engrafting the same tumor (3×10^5 syngeneic MCA205 fibrosarcoma cells) in one flank while an antigenically unrelated cancer (3×10^5 syngeneic TC1 lung carcinoma cells) was implanted into the contralateral flank.
Statistical analyses. For tumor size comparison, Student unpaired t test or one-way ANOVA (Holm-Sidak) were performed. All statistical analyses were performed using GraphPad Prism version 6 for Windows (GraphPad Software, La Jolla, Calif., USA). Differences were considered significant when p value<0.05.

PD-L2 = PD-L2 expression in tumor cells; assay type: in vivo, C57B1/6 mice; conditions: data not shown
Description: as §1, §2

[1] = background, reference (9); cited from earlier work
[2] = HC + MTX chemotherapy + immunotherapy (anti-PD-1 plus anti-CTLA-4)

SMILES | Expression of PD-1 (PD-1) | Complete responses leading to tumor eradication (MCA205 fibrosarcoma; MTX plus immunotherapy (antibodies blocking CTLA-4 or PD-1)) | Complete responses leading to tumor eradication (MCA205 fibrosarcoma; MTX plus isotypes) | Complete cure (MCA205 fibrosarcoma; MTX pretreatment, then CTLA-4/PD-1-blocking antibodies from day 8 post-chemotherapy (FIG. 6)) | PD-L2 expression in CD45- cells (PD-L2; MTX) | Complete responses at day 30 (MCA205 fibrosarcoma; [2]) | Stable response (MCA205 fibrosarcoma; [2]) | Reduction of tumor growth (MCA205 fibrosarcoma; HC in drinking water + MTX chemotherapy + immunotherapy, versus all other groups) | Reduction of tumor growth and prolongation of survival (MCA205 fibrosarcoma; HC+MTX versus MTX alone, data not shown) | Complete responses leading to tumor eradication (MCA205 fibrosarcoma; MTX plus HC) | Tumor-free mice (MCA205 fibrosarcoma; MTX pre-treatment associated with the CRM, then CTLA-4/PD-1-blocking antibodies (FIG. 6)) | Efficacy of MTX + ICIs (anti-PD-1 plus anti-CTLA-4) chemo-immunotherapy when the CRM is added (MCA205 fibrosarcoma) | Efficacy of MTX + ICIs (anti-PD-1 plus anti-CTLA-4) chemo-immunotherapy when the CRM is added (MCA205 fibrosarcoma; listed as Hydroxycitrate) | Response to CTLA-4/PD-1-blockade (MCA205 fibrosarcoma; pretreated with the CRM alone (without MTX), data not shown) | Effect of co-treatment on MTX-induced PD-L2 increase in CD45- cells (PD-L2) | Efficacy of anticancer chemotherapy with immunogenic cell death (ICD) inducers [1]
O=C1c2c(O)ccc(O)c2C(=O)c2c(NCCNCCO)ccc(NCCNCCO)c21 [MTX, mitoxantrone] | No changes | either not seen at all or rare | either not seen at all or rare | 3 out of 10 | increase | – | – | – | – | – | – | – | – | – | – | –
O=C(O)CC(O)(C(=O)O)C(O)C(=O)O (stereo not shown) [HC, hydroxycitrate] | – | – | – | – | – | all animals of the group | 7 out of 8 | more efficient in reducing tumor growth than all other groups | more successful in reducing tumor growth and in prolonging survival than MTX alone | either not seen at all or rare | 7 out of 10 | further enhanced | enhances tumor growth control | did not respond | not affected | able to improve the efficacy
